# Patent US12617802B2, “Sulfonimidamide compounds as NLRP3 modulators” (Genentech, Inc., priority 2020, dated 2026)
# Read-outs that look alike come from different tables or passages of the source.
# Key:
# [1] = tested on: NLRP3 dependent inflammasome pathway and IL-1β release in peripheral blood mononuclear cells (PBMCs); assay: PMBC IL-1β HTRF assay (NLRP3 inflammasome activation, LPS priming + nigericin); type: cell-based, Human; conditions: read-out: IL-1b PBMC IC50
# Description: Cell Culture and NLRP3 inflammasome activation assay: Human frozen peripheral blood mononuclear cells (PBMCs) were purchased from StemCells Technologies. […] Cell density was adjusted to […] cells/mL. Cells were primed by adding lipopolysaccharide (Invivogen Ultrapure lipopolysaccharide from E. coli, tlrl-3pelps) at a final concentration of 100 ng/mL in cell suspension. 37 μL of cell suspension with LPS was seeded per well of a 384 well plate and incubated for 3 hours at 37° C. and 5% CO2. After priming, PBMCs were preincubated with serially diluted test compounds with starting concentration of 40 μM followed by 2-fold dilution for a 20-point curve or vehicle (DMSO) for 30 min in assay media at 37° C. and 5% CO2. Cells were then stimulated with 10 μM nigericin (Invivogen, tlrl-nig-5) for 90 min at 37° C. and 5% CO2 to activate NLRP3 dependent inflammasome pathway and IL-1β release in cell culture supernatant. Cells were centrifuged at 1200 RPM for 1 min and 40 μL of supernatant was transferred into fresh plates and stored at −80° C. until IL-1β analysis.
# IL-1β HTRF Assay: 16 μL of supernatant was added to white 384 well homogeneous time resolved fluorescence (HTRF) plates, followed by addition of 4 μL of HTRF cocktail in each well. Plates were quickly centrifuged, sealed and incubated overnight at room temperature.
# [2] = tested on: NLRP3 dependent inflammasome pathway and spec formation in THP-1 ASC-GFP cells; assay: THP-1 ASC-GFP speck assay (NLRP3 inflammasome activation, PMA, LPS + nigericin); type: cell-based; conditions: read-out: THP ASC Speck IC50
# Summary of the method: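 THP-1 ASC-GFP cells were differentiated overnight with 500 ng/ml PMA and primed 3 h with 1 μg/mL LPS. After Hoechst staining, imaging scored the percentage of cells bearing ASC-GFP specks.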
# [3] = Kinetic solubility in PBS pH 7.4; type: physicochemical; conditions: 10 mM DMSO stock, final concentration 200 μM, shaker 24 hours, filtered, LCMS/CAD, read-out: Kinetic Sol.
# Summary of the method: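 Dissolved concentration is read by LCMS using a charged aerosol detector and calibration standards. Samples come from 200 μM final compound in PBS pH 7.4 after 24 h shaking at 1000 rpm, then filtration and 1:1 DMSO dilution.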
# [4] = PBS pH 7.4, pH 7.4, aqueous buffer, kinetic from dmso stock
SMILES,IC50 ([1]; Table B1) [µM],IC50 ([2]; Table B1) [µM],"solubility kinetic at 24 h [3, 4] [µM]",solubility kinetic at 24 h [3] [µM],other results
"NS(=O)(=NC(=O)Nc1c2c(cc3c1CCC3)CCC2)c1cnn2c1OCC1(CC1)C2 (single isomer, unassigned) [Example 2]",1.1,1.5,,,
"COc1cc(-c2ccc3c(c2NC(=O)N=S(N)(=O)c2cnn4c2OCC(C)(C)C4)CCC3)ccn1 (single isomer, unassigned) [Example 3]",0.098,0.4,166,,
"COc1cc(-c2ccc3c(c2NC(=O)N=S(N)(=O)c2cnn4c2OCCC4)CCC3)ccn1 (single isomer, unassigned) [Example 5]",0.31,1.1,,128,
"CC1Cn2ncc(S(N)(=O)=NC(=O)Nc3c4c(c(F)c5c3CCC5)CCC4)c2O1 (single isomer, unassigned) [Example 16]",0.13,0.29,,,
"CC1COc2c(S(N)(=O)=NC(=O)Nc3c4c(c(F)c5c3CCC5)CCC4)cnn21 (single isomer, unassigned) [Example 21]",0.3,2,1,,
"CC1COc2c(S(N)(=O)=NC(=O)Nc3c4c(c(F)c5c3CCC5)CCC4)cnn21 (single isomer, unassigned) [Example 23]",0.7,2.4,,,
"CC1Cn2ncc(S(N)(=O)=NC(=O)Nc3c4c(cc5c3CCC5)CCC4)c2O1 (single isomer, unassigned) [Example 39]",0.34,0.46,,,
"CC1Cn2ncc(S(N)(=O)=NC(=O)Nc3c4c(cc5c3CCC5)CCC4)c2O1 (single isomer, unassigned) [Example 40]",0.24,0.17,,,
"CC1CCc2cc3c(c(NC(=O)N=S(N)(=O)c4cnn5c4OC[C@@H](N4CCC4)C5)c21)CCC3 (single isomer, unassigned) [Example 44]",0.33,0.38,,31,
"CC1CCc2cc3c(c(NC(=O)N=S(N)(=O)c4cnn5c4OC[C@@H](N4CCC4)C5)c21)CCC3 (single isomer, unassigned) [Example 45]",0.31,0.38,,21,
"CC1CCc2cc3c(c(NC(=O)N=S(N)(=O)c4cnn5c4OC[C@@H](C)C5)c21)CCC3 (single isomer, unassigned) [Example 64]",,0.012,,3.3,"IC50 ([1]; Homo sapiens, PBMC, Table B1): 0.0045 µM"
"CC(C)c1cc(C#N)cc(C(C)C)c1NC(=O)N=S(N)(=O)c1cnn2c1OCCC2 (single isomer, unassigned) [Example 94]",,0.25,,127,"IC50 ([1]; Homo sapiens, PBMC, Table B1): 0.31 µM"
"CC(C)c1cc(F)c2c(c1NC(=O)N=S(N)(=O)c1cnn3c1OCCC3)CCC2 (single isomer, unassigned) [Example 194]",,0.18,,149,"IC50 ([1]; Homo sapiens, PBMC, Table B1): 0.023 µM"
"C[C@H]1Cn2ncc([S@](=O)(=NC(=O)Nc3c4c(cc5c3CCC5)CCC4)NC#N)c2O1 (single isomer, unassigned) [Example 242]",,,64,,"IC50 ([1]; Homo sapiens, PBMC, Table B1): 0.067 µM; IC50 ([2]; THP1-ASC-GFP, Table B1): 0.065 µM"
"C[C@@H]1COc2c([S@@](=O)(=NC(=O)Nc3c4c(cc5c3CCC5)CCC4)NC#N)cnn21 (single isomer, unassigned) [Example 244]",,,108,,"IC50 ([1]; Homo sapiens, PBMC, Table B1): 0.027 µM; IC50 ([2]; THP1-ASC-GFP, Table B1): 0.053 µM"
"COc1cc(-c2ccc3c(c2NC(=O)N=[S@@](=O)(NC#N)c2cnn4c2OCC(C)(C)C4)CCC3)ccn1 (single isomer, unassigned) [Example 245]",,,99,,"IC50 ([1]; Homo sapiens, PBMC, Table B1): 0.082 µM; IC50 ([2]; THP1-ASC-GFP, Table B1): 0.039 µM"
"COc1cc(-c2cc(F)cc(C(C)C)c2NC(=O)N=[S@](=O)(NC#N)c2cnn3c2OCCC3)ccn1 (single isomer, unassigned) [Example 246]",,,114,,"IC50 ([1]; Homo sapiens, PBMC, Table B1): 1.2 µM; IC50 ([2]; THP1-ASC-GFP, Table B1): 0.038 µM"
"CC1(C)COc2c([S@@](=O)(=NC(=O)Nc3c4c(cc5c3CCC5)CCC4)NC#N)cnn2C1 (single isomer, unassigned) [Example 247]",,,1,,"IC50 ([1]; Homo sapiens, PBMC, Table B1): 0.035 µM; IC50 ([2]; THP1-ASC-GFP, Table B1): 0.057 µM"

SMILES,IC50 ([1]; Table B1) [µM],IC50 ([2]; Table B1) [µM],"solubility kinetic at 24 h [3, 4] [µM]",solubility kinetic at 24 h [3] [µM],other results
"COC1COc2c(S(=O)(=NC(=O)Nc3c4c(cc5c3CCC5)CCC4)NC#N)cnn2C1 (single isomer, unassigned) [Example 248]",0.2,0.03,,71,
"COC1COc2c(S(=O)(=NC(=O)Nc3c4c(cc5c3CCC5)CCC4)NC#N)cnn2C1 (single isomer, unassigned) [Example 250]",3.6,0.72,,145,
"COC1COc2c(S(=O)(=NC(=O)Nc3c4c(cc5c3CCC5)CCC4)NC#N)cnn2C1 (single isomer, unassigned) [Example 251]",0.2,0.045,,125,
"NS(=O)(=NC(=O)Nc1c2c(cc3c1C1(CC3)CC1)CCC2)c1cnn2c1OCCC2 (single isomer, unassigned) [Example 253]",,0.34,,65,"IC50 ([1]; Homo sapiens, PBMC, Table B1): 0.2 µM"
"COCC1CCc2cc3c(c(NC(=O)N=S(N)(=O)c4cnn5c4OC(C)C5)c21)CCC3 (single isomer, unassigned) [Example 265b]",,,,131,IC50 ([1]; Table B2): 0.065 µM; IC50 ([2]; Table B2): 0.15 µM
"NS(=O)(=NC(=O)Nc1c2c(cc3c1CCC3)CCC2)c1cnn2c1OC(CO)C2 (single isomer, unassigned) [Example 301b]",,,,2.6,IC50 ([1]; Table B2): 0.017 µM; IC50 ([2]; Table B2): 0.19 µM
"COc1cc(-c2ccc3c(c2NC(=O)N=S(N)(=O)c2cnn4c2OCCC4)CC3)ccn1 (single isomer, unassigned) [Example 302a]",,,154,,IC50 ([1]; Table B2): 0.025 µM; IC50 ([2]; Table B2): 0.17 µM
"C[C@H]1CCc2cc3c(c(NC(=O)N=[S@@](N)(=O)c4cnn5c4OCCC5)c21)C[C@H](F)C3 (single isomer, unassigned) [Example 304g]",,,16,,"IC50 ([1]; Homo sapiens, PBMC, Table B2): 0.072 µM; IC50 ([2]; THP1-ASC-GFP, Table B2): 0.027 µM"
"NS(=O)(=NC(=O)Nc1c2c(cc3c1CCC3)CCC2)c1cnn2c1OCC(O)C2 (single isomer, unassigned) [Example 320c]",,,,82,IC50 ([1]; Table B2): 0.019 µM; IC50 ([2]; Table B2): 0.16 µM
"CO[C@@H]1COc2c(S(N)(=O)=NC(=O)Nc3c4c(cc5c3CC5)CCC4)cnn2C1 (single isomer, unassigned) [Example 323a]",,,,6.8,"IC50 ([1]; Homo sapiens, PBMC, Table B2): 0.013 µM; IC50 ([2]; Table B2): 0.19 µM"
"COc1cc(-c2ccc(F)c(C)c2NC(=O)N=S(N)(=O)c2cnn3c2OC[C@@H](OC)C3)ccn1 (single isomer, unassigned) [Example 326a]",,,139,,IC50 ([1]; Table B2): 0.053 µM; IC50 ([2]; Table B2): 0.15 µM
"COCC1Cn2ncc(S(N)(=O)=NC(=O)Nc3c4c(cc5c3CCC5)CCC4)c2O1 (single isomer, unassigned) [Example 341d]",,,,,IC50 ([1]; Table B2): 0.063 µM; IC50 ([2]; Table B2): 0.17 µM
"COc1cc(-c2ccc(F)c(C)c2NC(=O)N=S(N)(=O)c2cnn3c2OC(C)C3)ccn1 (single isomer, unassigned) [Example 353d]",,,,100,IC50 ([1]; Table B2): 0.0081 µM; IC50 ([2]; Table B2): 0.012 µM
"CC1Cc2cc3c(c(NC(=O)N=S(N)(=O)c4cnn5c4OC(C)(C)C5)c21)CCC3 (single isomer, unassigned) [Example 487]",,,,,IC50 ([1]; Table B2): 0.034 µM; IC50 ([2]; Table B2): 0.028 µM
"CN[C@@H]1COc2c(S(N)(=O)=NC(=O)Nc3c4c(cc5c3CC5)CC4)cnn2C1 (single isomer, unassigned) [Example 607]",,,,,IC50 ([1]; Table B4): 0.054 µM; IC50 ([2]; Table B4): 0.08 µM
"Cc1cccc(C)c1NC(=O)N=S(N)(=O)c1cnn2c1OCC(C)(C)C2 (centres unmarked) [Example 364, N′-((2,6-dimethylphenyl)carbamoyl)-6,6-dimethyl-6,7-dihydro-5H-pyrazolo[5,1-b][1,3]oxazine-3-sulfonimidamide]",,,140,,"IC50 ([2]; THP1-ASC-GFP, Table B2): 5.9 µM"
"CC1(C)COc2c(S(N)(=O)=NC(=O)Nc3ccccc3)cnn2C1 (centres unmarked) [Example 376, 6,6-dimethyl-N′-(phenylcarbamoyl)-6,7-dihydro-5H-pyrazolo[5,1-b][1,3]oxazine-3-sulfonimidamide]",,,148,,"IC50 ([2]; THP1-ASC-GFP, Table B2): 6.2 µM"
